{"source": "patent US20060110449A1", "about": "“Pharmaceutical composition” (priority 2004, published 2006)", "key": {"[1]": {"tested_on": "secretions of natural tear components", "details": "preclinical testing, reportedly; cited from earlier work"}, "[2]": {"tested_on": "subjects with Seasonal Allergic Rhinitis (SAR) and Post-Nasal Drip", "assay": "Phase II randomized, double-blind, placebo controlled study: symptom scores (post nasal drip, anterior rhinorrhea, total symptom score)", "details": "for least square mean change from baseline in the average AM/PM PRIOR post nasal drip score, percent / least square mean change from baseline in the average AM/PM PRIOR post nasal drip score: 7-day Treatment Phase, Oxy 5 mg BID, combinations given concurrently BID; for least square mean change from baseline in the average AM/PM PRIOR post nasal drip score: all randomized subjects; for anterior rhinorrhea treatment difference vs. placebo: key secondary efficacy variable, BID, DL 2.5 mg, Oxy 5 mg", "from_the_text": "(§1) The total target enrollment was 500 subjects with 100 per arm. The study consisted of a 7-day Treatment Phase.\nThe primary efficacy variable was the change from baseline in the average AM/PM PRIOR post nasal drip score over the Treatment Phase of 7 days. The analysis was based on a main effect analysis of variance (ANOVA), which extracted sources of variation due to treatment and center. […] Pairwise treatment comparisons were examined using the 95% confidence intervals of the treatment differences at an unadjusted 2-sided alpha-level of 0.05.\nAfter the examination of post nasal drip, the key secondary efficacy variable, anterior rhinorrhea, was examined in the same manner.\nThere were 38 subjects excluded from the efficacy evaluable subset. A majority of these subjects were excluded due to insufficient efficacy data. Determination of evaluability was perfomed prior to unblinding the database. Though the treatment duration specified in the protocol was 7 days, about 70% of subjects also completed their diary on the AM of Day 8 since the final office visit was scheduled on that day. Therefore, the AM Day 8 data were included in the calculation of the one-week average.\nThe primary efficacy variable was the change from baseline in the average AM/PM PRIOR post nasal drip score over the Treatment Phase of 7 days."}, "[3]": {"details": "DL 2.5 mg BID, Oxy 5 mg BID, combinations BID; 7 days", "from_the_text": "as §1"}, "[4]": {"tested_on": "symptoms most closely associated with chronic nasal congestion (e.g., stuffy nose)", "details": "reportedly; cited from earlier work"}}}
{"compound": "O=c1ccn([C@@H]2O[C@H](COP(=O)(O)OP(=O)(O)OP(=O)(O)OP(=O)(O)OC[C@H]3O[C@@H](n4ccc(=O)[nH]c4=O)[C@H](O)[C@@H]3O)[C@@H](O)[C@H]2O)c(=O)[nH]1", "note": "[diquafosol, Diquafosol tetrasodium]", "values": [{"measurement": "secretions of natural tear components", "setting": "[1]", "value": "increased"}]}
{"compound": "Clc1ccc2c(c1)CCc1cccnc1C2=C1CCNCC1", "note": "[DL, desloratadine]", "values": [{"measurement": "least square mean change from baseline in the average AM/PM PRIOR post nasal drip score, percent", "setting": "[2]; DL 2.5 mg BID", "value": "−24.8", "unit": "%"}, {"measurement": "least square mean change from baseline in the average AM/PM PRIOR post nasal drip score", "setting": "[2]; DL 2.5 mg BID", "value": "−0.68"}, {"measurement": "total symptom score excluding post nasal drip, treatment difference vs. placebo", "setting": "[2]; DL 2.5 mg BID, 7 days", "value": 0.71, "unit": "point"}, {"measurement": "anterior rhinorrhea treatment difference vs. placebo", "setting": "[2]; 7 days", "value": 0.03, "unit": "points"}]}
{"compound": "CCN(CC)CC#CCOC(=O)C(O)(c1ccccc1)C1CCCCC1", "note": "(centres unmarked) [Oxy, Oxybutynin]", "values": [{"measurement": "least square mean change from baseline in the average AM/PM PRIOR post nasal drip score, percent", "setting": "[2]; DL 2.5 mg BID", "value": "−17.8", "unit": "%"}, {"measurement": "least square mean change from baseline in the average AM/PM PRIOR post nasal drip score", "setting": "[2]; DL 2.5 mg BID", "value": "−0.49"}, {"measurement": "anterior rhinorrhea treatment difference vs. placebo", "setting": "[2]; 7 days", "value": 0.04, "unit": "points"}, {"measurement": "discontinuation rate from the treatment phase", "setting": "[3]", "value": 5.56, "unit": "%"}, {"measurement": "percentage of subjects reporting any treatment emergent adverse events", "setting": "[3]", "value": 30.6, "unit": "%"}, {"measurement": "percentage of subjects reporting dry mouth", "setting": "[3]", "value": 13.9, "unit": "%"}, {"measurement": "subjects reporting any treatment emergent adverse events", "setting": "[3]", "value": 33, "unit": "subjects"}, {"measurement": "subjects reporting dry mouth", "setting": "[3]", "value": 15, "unit": "subjects"}]}
{"compound": "Oc1cccc(Nc2ncc(F)c(Nc3cccc(O)c3)n2)c1", "note": "[R112]", "values": [{"measurement": "absolute difference over placebo", "setting": "[4]", "value": 9, "unit": "%"}, {"measurement": "improvement from baseline measurements (prior to drug initiation)", "setting": "[4]", "value": "up to 38%"}, {"measurement": "relative improvement over placebo", "setting": "[4]", "value": "greater than 20%"}, {"measurement": "symptoms most closely associated with chronic nasal congestion (e.g., stuffy nose), over placebo", "setting": "[4]", "value": "improved"}]}
